Reference: publication PMC12250302, “Synthesis, Antimicrobial Activities, and Model of Action of Novel Tetralone Derivatives Containing Aminoguanidinium Moiety” (International Journal of Molecular Sciences, 2025)
Converted amounts (≈) assume the structure as drawn.

Columns and labels:
E. faecium ATCC 35667 = assay: MIC and MBC testing, broth microdilution; assay type: cell-based, Enterococcus faecium; conditions: Enterococcus faecium, ATCC35667, E. faecium ATCC 35667; for MIC: 18 h, read-out: MIC; for MBC: read-out: MBC
In short: (§1)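 Two-fold serial dilutions of compounds (DMSO stocks) in MH broth, inoculated with log-phase bacteria at 1 × 10^6 CFU/mL and incubated 18 h at 37 °C. MIC is the lowest concentration with no visible growth; triplicates. Levofloxacin positive, 0.1% DMSO negative control.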

S. aureus ATCC 29213 = assay: MIC and MBC testing, broth microdilution; assay type: cell-based, Staphylococcus aureus; conditions: Staphylococcus aureus, ATCC29213, S. aureus ATCC 29213; for MIC: 18 h, read-out: MIC; for MBC: read-out: MBC
In short: as §1

[1] = test system: K. pneumoniae ATCC 700603; assay: MIC and MBC testing, broth microdilution; assay type: cell-based, Klebsiella pneumoniae; conditions: Klebsiella pneumoniae; for MIC: ATCC700603, 18 h, read-out: MIC; for MBC: ATCC700603, read-out: MBC
In short: as §1

A. baumannii ATCC 19606 = assay: MIC and MBC testing, broth microdilution; assay type: cell-based, Acinetobacter baumannii; conditions: Acinetobacter baumannii; for MIC: ATCC19606, 18 h, read-out: MIC; for MBC: ATCC19606, read-out: MBC
In short: as §1

P. aeruginosa ATCC 27853 = assay: MIC and MBC testing, broth microdilution; assay type: cell-based, Pseudomonas aeruginosa; conditions: Pseudomonas aeruginosa; for MIC: ATCC27853, 18 h, read-out: MIC; for MBC: ATCC27853, read-out: MBC
In short: as §1

E. coli ATCC 25922 = assay: MIC and MBC testing, broth microdilution; assay type: cell-based, Escherichia coli; conditions: Escherichia coli; for MIC: ATCC25922, 18 h, read-out: MIC; for MBC: ATCC25922, read-out: MBC
In short: as §1

MRSA-1 = assay: MIC and MBC testing, broth microdilution; assay type: cell-based, Staphylococcus aureus; conditions: Staphylococcus aureus, MRSA-1; for MIC: 18 h, read-out: MIC; for MBC: read-out: MBC
In short: (§2)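 Strains grown to logarithmic phase were diluted to 1 × 10^6 CFU/mL, combined with compound two-fold dilution series in MH broth, and incubated at 37 °C for 18 h. MIC and MBC were then recorded, with triplicate wells per concentration.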

MRSA-2 = assay: MIC and MBC testing, broth microdilution; assay type: cell-based, Staphylococcus aureus; conditions: Staphylococcus aureus, MRSA-2; for MIC: 18 h, read-out: MIC; for MBC: read-out: MBC
In short: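 Compounds in DMSO were serially two-fold diluted in MH broth and mixed with log-phase bacteria diluted to 1 × 10^6 CFU/mL in MH broth, then incubated 18 h at 37 °C. MBC values were also determined. Each concentration was tested in triplicate.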

[2] = test system: clinical S. aureus isolate LMY45; assay: MIC and MBC testing, broth microdilution; assay type: cell-based, Staphylococcus aureus; conditions: Staphylococcus aureus, LMY45; for MIC: 18 h, read-out: MIC; for MBC: read-out: MBC
In short: as §2

[3] = test system: clinical S. aureus isolate LMY46; assay: MIC and MBC testing, broth microdilution; assay type: cell-based, Staphylococcus aureus; conditions: Staphylococcus aureus, LMY46; for MIC: 18 h, read-out: MIC; for MBC: read-out: MBC
In short: as §2

[4] = test system: clinical S. aureus isolate LMY47; assay: MIC and MBC testing, broth microdilution; assay type: cell-based, Staphylococcus aureus; conditions: Staphylococcus aureus, LMY47; for MIC: 18 h, read-out: MIC; for MBC: read-out: MBC
In short: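 Broth microdilution in MH broth: 2-fold compound dilutions from DMSO stocks, log-phase clinical S. aureus isolates or MRSA-1 at 1 × 10^6 CFU/mL, 18 h at 37 °C, each concentration in triplicate. MIC recorded; MBC also determined.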

[5] = test system: clinical S. aureus isolate LMY48; assay: MIC and MBC testing, broth microdilution; assay type: cell-based, Staphylococcus aureus; conditions: Staphylococcus aureus, LMY48; for MIC: 18 h, read-out: MIC; for MBC: read-out: MBC
In short: as §2

MRSA = assay: MIC testing, summary over MRSA strains; assay type: cell-based; conditions: Staphylococcus aureus; against MRSA
Protocol: (§3) The minimum inhibitory concentration (MIC) of all synthesized compounds was tested by the broth microdilution method. In brief, compounds dissolved in DMSO were diluted twice continuously in a 96-well plate with MH broth. The ESKAPE pathogens (E. coli ATCC 25922, S. aureus ATCC 29213, K. pneumoniae ATCC 700603, A. baumannii ATCC 19606, P. aeruginosa ATCC 27853, and E. faecium ATCC 35667), clinical S. aureus isolates (LMY45, LMY46, LMY47, and LMY48) and methicillin-resistant Staphylococcus aureus (MRSA-1 and MRSA-2) were cultured in MH broth to logarithmic growth phase and then diluted to 1 × 10^6 CFU/mL in MH broth. Subsequently, the diluted bacterial solution was mixed with the diluted compound solution in a 96-well plate and incubated at 37 °C for a duration of 18 h. The MIC of the compounds was recorded as the lowest concentration at which no visible growth was observed. […] Each concentration was replicated thrice.

[6] = test system: S. aureus, including MRSA; assay: MIC testing, summary over S. aureus strains; assay type: cell-based; conditions: Staphylococcus aureus
Protocol: as §3

SMILES	MIC (E. faecium ATCC 35667)	MBC (E. faecium ATCC 35667)	MIC (S. aureus ATCC 29213)	MBC (S. aureus ATCC 29213)	MIC [1]	MBC [1]	MIC (A. baumannii ATCC 19606)	MBC (A. baumannii ATCC 19606)	MIC (P. aeruginosa ATCC 27853)	MBC (P. aeruginosa ATCC 27853)	MIC (E. coli ATCC 25922)	MBC (E. coli ATCC 25922)	MIC (MRSA-1)	MBC (MRSA-1)	MIC (MRSA-2)	MBC (MRSA-2)	MIC [2]	MBC [2]	MIC [3]	MBC [3]	further results
[H]/N=C(\N)NN=C1CCCc2cc(OCc3ccc(F)c(Cl)c3)ccc21 [Compound 1U, (E)-2-(6-((3-chloro-4-fluorobenzyl)oxy)-3,4-dihydronaphthalen-1(2H)-ylidene)hydrazine-1-carboximidamide]	2 µg/mL (≈ 5.54 µM)	16 µg/mL (≈ 44.3 µM)	2 µg/mL (≈ 5.54 µM)	4 µg/mL (≈ 11.1 µM)	8 µg/mL (≈ 22.2 µM)	32 µg/mL (≈ 88.7 µM)	4 µg/mL (≈ 11.1 µM)	16 µg/mL (≈ 44.3 µM)	16 µg/mL (≈ 44.3 µM)	> 32 µg/mL	4 µg/mL (≈ 11.1 µM)	16 µg/mL (≈ 44.3 µM)	2 µg/mL (≈ 5.54 µM)	32 µg/mL (≈ 88.7 µM)	1 µg/mL (≈ 2.77 µM)	4 µg/mL (≈ 11.1 µM)	2 µg/mL (≈ 5.54 µM)	2 µg/mL (≈ 5.54 µM)	1 µg/mL (≈ 2.77 µM)	4 µg/mL (≈ 11.1 µM)	MIC [4]: 2 µg/mL (≈ 5.54 µM); MBC [4]: 4 µg/mL (≈ 11.1 µM); MIC [5]: 4 µg/mL (≈ 11.1 µM); MBC [5]: 8 µg/mL (≈ 22.2 µM); MIC (MRSA): 1 to 2 µg/mL (≈ 2.77 to 5.54 µM); MIC [6]: 0.5 to 4 µg/mL (≈ 1.39 to 11.1 µM)
[H]/N=C(\N)NN=C1CCCc2cc(OCCCC)ccc21 [Compound 2A, (E)-2-(6-butoxy-3,4-dihydronaphthalen-1(2H)-ylidene)hydrazine-1-carboximidamide]	8 µg/mL (≈ 29.2 µM)	32 µg/mL (≈ 117 µM)	4 µg/mL (≈ 14.6 µM)	> 32 µg/mL	16 µg/mL (≈ 58.3 µM)	> 32 µg/mL	8 µg/mL (≈ 29.2 µM)	16 µg/mL (≈ 58.3 µM)	32 µg/mL (≈ 117 µM)	32 µg/mL (≈ 117 µM)	16 µg/mL (≈ 58.3 µM)	> 32 µg/mL	2 µg/mL (≈ 7.29 µM)	2 µg/mL (≈ 7.29 µM)	1 µg/mL (≈ 3.64 µM)	2 µg/mL (≈ 7.29 µM)	2 µg/mL (≈ 7.29 µM)	4 µg/mL (≈ 14.6 µM)	2 µg/mL (≈ 7.29 µM)	4 µg/mL (≈ 14.6 µM)	MIC [4]: 2 µg/mL (≈ 7.29 µM); MBC [4]: 2 µg/mL (≈ 7.29 µM); MIC [5]: 1 µg/mL (≈ 3.64 µM); MBC [5]: 2 µg/mL (≈ 7.29 µM); MIC (MRSA): 1 to 2 µg/mL (≈ 3.64 to 7.29 µM); MIC [6]: 0.5 to 4 µg/mL (≈ 1.82 to 14.6 µM)
